From patent US20240158446A1, “CYCLIC COMPOUND HAVING SELECTIVE INHIBITORY ACTION ON KRAS OVER HRAS AND NRAS” (CHUGAI SEIYAKU KABUSHIKI KAISHA, priority 2021, published 2024)

Assays:
[1] = molecular target: GDP-bound KRAS wild-type protein (Homo sapiens, UniProt P01116); assay: Binding to KRAS by surface plasmon resonance (SPR), Single Cycle Kinetics; conditions: SPR, Single Cycle Kinetics, GDP-bound KRAS wild-type protein; read-out: KRAS KD
[2] = molecular target: GDP-bound NRAS wild-type protein (Homo sapiens, UniProt P01111); assay: Binding to NRAS by surface plasmon resonance (SPR), Single Cycle Kinetics; conditions: SPR, GDP-bound NRAS wild-type protein vs GDP-bound KRAS wild-type protein
[3] = molecular target: GDP-bound HRAS wild-type protein (Homo sapiens, UniProt P01112); assay: Binding to HRAS by surface plasmon resonance (SPR), Single Cycle Kinetics; conditions: SPR, GDP-bound HRAS wild-type protein vs GDP-bound KRAS wild-type protein
[4] = test system: human lung cancer strain NCI-H441;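 note: cell proliferation inhibition after four days measured by CellTiter-Glo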

GDP-bound NRAS wild-type protein, sequence (P01111 whole entry): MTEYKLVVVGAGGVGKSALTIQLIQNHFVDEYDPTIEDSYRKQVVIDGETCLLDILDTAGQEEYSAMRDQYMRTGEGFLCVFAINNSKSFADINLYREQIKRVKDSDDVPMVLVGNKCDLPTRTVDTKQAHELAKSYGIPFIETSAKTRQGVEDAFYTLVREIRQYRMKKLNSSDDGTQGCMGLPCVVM
GDP-bound HRAS wild-type protein, sequence (P01112 whole entry): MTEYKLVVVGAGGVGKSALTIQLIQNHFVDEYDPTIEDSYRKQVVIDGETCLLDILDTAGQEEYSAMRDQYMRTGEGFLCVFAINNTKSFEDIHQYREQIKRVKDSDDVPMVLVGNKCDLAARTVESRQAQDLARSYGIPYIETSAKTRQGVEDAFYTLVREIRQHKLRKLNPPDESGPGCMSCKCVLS
GDP-bound KRAS wild-type protein, sequence (P01116 whole entry): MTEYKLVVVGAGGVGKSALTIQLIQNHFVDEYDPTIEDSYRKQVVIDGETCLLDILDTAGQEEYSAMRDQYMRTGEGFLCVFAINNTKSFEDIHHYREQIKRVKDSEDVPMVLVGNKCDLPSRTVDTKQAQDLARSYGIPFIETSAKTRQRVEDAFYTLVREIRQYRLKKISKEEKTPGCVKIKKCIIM

| SMILES | Kd [1] [µM] | NRAS/KRAS (ratio of KD value for NRAS to KD value for KRAS) [2] | HRAS/KRAS (ratio of KD value for HRAS to KD value for KRAS) [3] | IC50 [4] [µM] |
| --- | --- | --- | --- | --- |
| CCO[C@@H]1C[C@H]2C(=O)NC3(CC(C)(C)C3)C(=O)N(C)[C@@H](C(CC)CC)C(=O)N(C)[C@H](C(=O)N(C)C)CC(=O)N(C)[C@@H](C(C)C)C(=O)N[C@@H]([C@@H](C)CC)C(=O)N(C)CC(=O)N(C)[C@H]3C/C=C\CCN(C3=O)[C@@H](CC3CCC(F)(F)CC3)C(=O)N(C)CC(=O)N[C@@H](CCc3cc(F)c(C(F)(F)F)c(F)c3)C(=O)N2C1 [PP2481] | 0.0016 | A (a compound having 10 or more and less than 20 is denoted as A) | A (a compound having 10 or more and less than 20 is denoted as A) | 0.0336 |
| CCC[C@H]1C(=O)N[C@@H]([C@@H](C)CC)C(=O)N(C)CC(=O)N(C)[C@H]2C/C=C\CCN(C2=O)[C@@H](CC2CCC(F)(F)CC2)C(=O)N(C)CC(=O)N[C@@H](CCc2ccc(C(F)(F)F)c(OC)c2)C(=O)N2C[C@H](OCC)C[C@H]2C(=O)NC2(CC(C)(C)C2)C(=O)N(C)[C@@H](C(CC)CC)C(=O)N(C)[C@H](C(=O)N(C)C)CC(=O)N1C [PP2482] | 0.00093 | A (a compound having 10 or more and less than 20 is denoted as A) | A (a compound having 10 or more and less than 20 is denoted as A) | 0.0238 |
| CCCOC[C@H]1C(=O)N[C@@H]([C@@H](C)CC)C(=O)N(C)CC(=O)N(C)[C@H]2C/C=C\CCN(C2=O)[C@@H](CC2CCC(F)(F)CC2)C(=O)N(C)CC(=O)N[C@@H](CCc2ccc(C(F)(F)F)c(OC)c2)C(=O)N2C[C@@H](C)C[C@H]2C(=O)NC2(CC(C)(C)C2)C(=O)N(C)[C@@H](C(CC)CC)C(=O)N(C)[C@H](C(=O)N(C)C)CC(=O)N1C [PP2483] | 0.0016 | A (a compound having 10 or more and less than 20 is denoted as A) | A (a compound having 10 or more and less than 20 is denoted as A) | 0.195 |
| CCCOC[C@H]1C(=O)N[C@@H]([C@@H](C)CC)C(=O)N(C)CC(=O)N(C)[C@H]2C/C=C\CCN(C2=O)[C@@H](CC2CCC(F)(F)CC2)C(=O)N(C)CC(=O)N[C@@H](CCc2ccc(C(F)(F)F)c(Cl)c2)C(=O)N2C[C@H](OCC)C[C@H]2C(=O)NC2(CC(C)(C)C2)C(=O)N(C)[C@@H](C(CC)CC)C(=O)N(C)[C@H](C(=O)N(C)C)CC(=O)N1C [PP2484] | 0.001 | A (a compound having 10 or more and less than 20 is denoted as A) | A (a compound having 10 or more and less than 20 is denoted as A) | 0.0743 |
| CCO[C@@H]1C[C@H]2C(=O)NC3(CC(C)(C)C3)C(=O)N(C)[C@@H](C(CC)CC)C(=O)N(C)[C@H](C(=O)N(C)C)CC(=O)N(C)[C@@H](CC3CC3)C(=O)N[C@@H]([C@@H](C)CC)C(=O)N(C)CC(=O)N(C)[C@H]3C/C=C\CCN(C3=O)[C@@H](CC3CCC(F)(F)CC3)C(=O)N(C)CC(=O)N[C@@H](CCc3cc(F)c(C(F)(F)F)c(F)c3)C(=O)N2C1 [PP2485] | 0.00078 | A (a compound having 10 or more and less than 20 is denoted as A) | A (a compound having 10 or more and less than 20 is denoted as A) | 0.0555 |
| CCOC[C@H]1C(=O)N[C@@H]([C@@H](C)CC)C(=O)N(C)CC(=O)N(C)[C@H]2C/C=C\CCN(C2=O)[C@@H](CC2CCCCC2)C(=O)N(C)CC(=O)N[C@@H](CCc2ccc(C(F)(F)F)c(Cl)c2)C(=O)N2C[C@H](OCC)C[C@H]2C(=O)NC2(CC(C)(C)C2)C(=O)N(C)[C@@H](C(CC)CC)C(=O)N(C)[C@H](C(=O)N(C)C)CC(=O)N1C [PP2488] | 0.0016 | A (a compound having 10 or more and less than 20 is denoted as A) | A (a compound having 10 or more and less than 20 is denoted as A) | 0.171 |
| CCC[C@H]1C(=O)N[C@@H]([C@@H](C)CC)C(=O)N(C)CC(=O)N(C)[C@H]2C/C=C\CCN(C2=O)[C@@H](CC2CCC(F)(F)CC2)C(=O)N(C)CC(=O)N[C@@H](CCc2cc(F)c(C(F)(F)F)c(F)c2)C(=O)N2C[C@H](OCC)C[C@H]2C(=O)NC2(CC(C)(C)C2)C(=O)N(C)[C@@H](C(CC)CC)C(=O)N(C)[C@H](C(=O)N(C)C)CC(=O)N1C [PP2489] | 0.00055 | A (a compound having 10 or more and less than 20 is denoted as A) | A (a compound having 10 or more and less than 20 is denoted as A) | 0.0305 |
| CCCOC[C@H]1C(=O)N[C@@H]([C@@H](C)CC)C(=O)N(C)CC(=O)N(C)[C@H]2C/C=C\CCN(C2=O)[C@@H](CC2CCC(F)(F)CC2)C(=O)N(C)CC(=O)N[C@@H](CCc2cc(F)c(C(F)(F)F)c(F)c2)C(=O)N2C[C@@H](C)C[C@H]2C(=O)NC2(CC(C)(C)C2)C(=O)N(C)[C@@H](C(CC)CC)C(=O)N(C)[C@H](C(=O)N(C)C)CC(=O)N1C [PP2490] | 0.0017 | AA (a compound having 20 or more is denoted as AA) | A (a compound having 10 or more and less than 20 is denoted as A) | 0.162 |
| CCO[C@@H]1C[C@H]2C(=O)NC3(CC(C)(C)C3)C(=O)N(C)[C@@H](C(CC)CC)C(=O)N(C)[C@H](C(=O)N(C)C)CC(=O)N(C)[C@@H](C(C)C)C(=O)N[C@@H]([C@@H](C)CC)C(=O)N(C)CC(=O)N(C)[C@H]3C/C=C\CCN(C3=O)[C@@H](CC3CCC(F)(F)CC3)C(=O)N(C)CC(=O)N[C@@H](CCc3ccc(C(F)(F)F)c(Cl)c3)C(=O)N2C1 [PP2492] | 0.0024 | AA (a compound having 20 or more is denoted as AA) | A (a compound having 10 or more and less than 20 is denoted as A) | 0.0767 |
| CCC(CC)[C@H]1C(=O)N(C)[C@H](C(=O)N(C)C)CC(=O)N(C)[C@@H](CC2CC2)C(=O)N[C@@H]([C@@H](C)CC)C(=O)N(C)CC(=O)N(C)[C@H]2C/C=C\CCN(C2=O)[C@@H](CC2CCC(F)(F)CC2)C(=O)N(C)CC(=O)N[C@@H](CCc2ccc(C(F)(F)F)c(OC)c2)C(=O)N2C[C@@H](C)C[C@H]2C(=O)NC2(CC(C)(C)C2)C(=O)N1C [PP2494] | 0.0018 | A (a compound having 10 or more and less than 20 is denoted as A) | A (a compound having 10 or more and less than 20 is denoted as A) | 0.0396 |
| CCO[C@@H]1C[C@H]2C(=O)NC3(CC(C)(C)C3)C(=O)N(C)[C@@H](C(CC)CC)C(=O)N(C)[C@H](C(=O)N(C)C)CC(=O)N(C)[C@@H](CC3CC3)C(=O)N[C@@H]([C@@H](C)CC)C(=O)N(C)CC(=O)N(C)[C@H]3C/C=C\CCN(C3=O)[C@@H](CC3CCC(F)(F)CC3)C(=O)N(C)CC(=O)N[C@@H](CCc3ccc(C(F)(F)F)c(Cl)c3)C(=O)N2C1 [PP2495] | 0.00084 | A (a compound having 10 or more and less than 20 is denoted as A) | A (a compound having 10 or more and less than 20 is denoted as A) | 0.0174 |
| CCC(CC)[C@H]1C(=O)N(C)[C@H](C(=O)N(C)C)CC(=O)N(C)[C@@H](C(C)C)C(=O)N[C@@H]([C@@H](C)CC)C(=O)N(C)CC(=O)N(C)[C@H]2C/C=C\CCN(C2=O)[C@@H](CC2CCC(F)(F)CC2)C(=O)N(C)CC(=O)N[C@@H](CCc2cc(F)c(C(F)(F)F)c(F)c2)C(=O)N2C[C@@H](C)C[C@H]2C(=O)NC2(CC(C)(C)C2)C(=O)N1C [PP2496] | 0.0062 | A (a compound having 10 or more and less than 20 is denoted as A) | A (a compound having 10 or more and less than 20 is denoted as A) | 0.0973 |
| CCC[C@H]1C(=O)N[C@@H]([C@@H](C)CC)C(=O)N(C)CC(=O)N(C)[C@H]2C/C=C\CCN(C2=O)[C@@H](CC2CCC(F)(F)CC2)C(=O)N(C)CC(=O)N[C@@H](CCc2ccc(C(F)(F)F)c(OC)c2)C(=O)N2C[C@@H](C)C[C@H]2C(=O)NC2(CC(C)(C)C2)C(=O)N(C)[C@@H](C(CC)CC)C(=O)N(C)[C@H](C(=O)N(C)C)CC(=O)N1C [PP2497] | 0.0015 | A (a compound having 10 or more and less than 20 is denoted as A) | A (a compound having 10 or more and less than 20 is denoted as A) | 0.0848 |
| CCC[C@H]1C(=O)N[C@@H]([C@@H](C)CC)C(=O)N(C)CC(=O)N(C)[C@H]2C/C=C\CCN(C2=O)[C@@H](CC2CCC(F)(F)CC2)C(=O)N(C)CC(=O)N[C@@H](CCc2ccc(C(F)(F)F)c(Cl)c2)C(=O)N2C[C@H](OCC)C[C@H]2C(=O)NC2(CC(C)(C)C2)C(=O)N(C)[C@@H](C(CC)CC)C(=O)N(C)[C@H](C(=O)N(C)C)CC(=O)N1C [PP2498] | 0.00067 | A (a compound having 10 or more and less than 20 is denoted as A) | A (a compound having 10 or more and less than 20 is denoted as A) | 0.0219 |
